{
  "source": "ChEMBL document CHEMBL1201862",
  "about": "“PubChem BioAssay data set” (2004)",
  "key": {"[1]": {"target": "Heat shock protein HSP 90-alpha (Homo sapiens, UniProt P07900)", "type": "functional, organism-based"}, "[2]": {"target": "DNA damage-inducible transcript 3 protein (Mus musculus, UniProt P35639)", "type": "functional, Cricetulus griseus"}, "X-box-binding protein 1": {"target": "X-box-binding protein 1 (Homo sapiens, UniProt P17861)", "type": "functional, Cricetulus griseus"}, "BJ": {"system": "BJ", "experiment": "growth inhibition of engineered Ras-driven BJ cells – cell-based, alamar blue fluorescence, cherrypicked samples, dose response (AID 2631);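 also: confirmatory dose-response assay in RAS-dependent BJ fibroblasts engineered with TERT, LT and ST, with cytotoxicity read by fluorescence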", "type": "functional", "conditions": "Homo sapiens"}, "HeLa": {"system": "HeLa", "experiment": "Cytotoxicity counterscreen assay for transcriptional activators of heat shock protein 70 (Hsp70). [Related pubchem assays: 1203, 1252 ]", "type": "functional", "conditions": "Homo sapiens"}, "[3]": {"target": "T1, Beta-adrenergic receptor kinase 1 (Homo sapiens, UniProt P25098)", "T1 sequence (P25098 whole entry)": "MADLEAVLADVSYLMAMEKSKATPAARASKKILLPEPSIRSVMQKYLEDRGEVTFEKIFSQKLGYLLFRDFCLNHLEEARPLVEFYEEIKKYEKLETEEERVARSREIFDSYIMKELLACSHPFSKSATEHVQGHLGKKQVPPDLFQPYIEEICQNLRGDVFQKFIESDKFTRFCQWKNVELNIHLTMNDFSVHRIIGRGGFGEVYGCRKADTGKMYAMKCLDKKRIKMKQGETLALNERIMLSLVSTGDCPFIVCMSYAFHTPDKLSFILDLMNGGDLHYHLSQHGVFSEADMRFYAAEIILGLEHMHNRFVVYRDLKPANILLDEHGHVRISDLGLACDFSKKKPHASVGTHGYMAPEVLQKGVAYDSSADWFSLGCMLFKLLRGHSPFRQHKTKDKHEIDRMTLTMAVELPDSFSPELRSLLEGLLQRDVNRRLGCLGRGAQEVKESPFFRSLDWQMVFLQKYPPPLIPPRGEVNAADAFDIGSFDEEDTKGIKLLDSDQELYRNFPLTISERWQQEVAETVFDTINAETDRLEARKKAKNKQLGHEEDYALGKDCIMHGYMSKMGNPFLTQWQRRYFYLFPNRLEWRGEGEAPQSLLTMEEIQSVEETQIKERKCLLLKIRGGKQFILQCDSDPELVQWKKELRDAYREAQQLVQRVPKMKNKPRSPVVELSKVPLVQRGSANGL", "experiment": "blockers of aptamer binding to GRK2 – biochemical, flow cytometry beads, FAM-aptamer, powder set 1, dose response (AID 588720)"}, "[4]": {"target": "Peroxisome proliferator-activated receptor gamma/Nuclear receptor corepressor 2 (Homo sapiens, UniProt P37231+Q9Y618)", "experiment": "Counterscreen for NR2E3 inverse agonists: TR-FRET-based biochemical high throughput dose response assay to identify inverse agonists of the interaction between peroxisome proliferator-activated receptor gamma (PPARg) and nuclear receptor co-repressor 2 (NCOR2).", "type": "functional"}, "[5]": {"target": "T2, Heat shock factor protein 1 (Mus musculus, UniProt P38532)", "T2 sequence (P38532 whole entry)": "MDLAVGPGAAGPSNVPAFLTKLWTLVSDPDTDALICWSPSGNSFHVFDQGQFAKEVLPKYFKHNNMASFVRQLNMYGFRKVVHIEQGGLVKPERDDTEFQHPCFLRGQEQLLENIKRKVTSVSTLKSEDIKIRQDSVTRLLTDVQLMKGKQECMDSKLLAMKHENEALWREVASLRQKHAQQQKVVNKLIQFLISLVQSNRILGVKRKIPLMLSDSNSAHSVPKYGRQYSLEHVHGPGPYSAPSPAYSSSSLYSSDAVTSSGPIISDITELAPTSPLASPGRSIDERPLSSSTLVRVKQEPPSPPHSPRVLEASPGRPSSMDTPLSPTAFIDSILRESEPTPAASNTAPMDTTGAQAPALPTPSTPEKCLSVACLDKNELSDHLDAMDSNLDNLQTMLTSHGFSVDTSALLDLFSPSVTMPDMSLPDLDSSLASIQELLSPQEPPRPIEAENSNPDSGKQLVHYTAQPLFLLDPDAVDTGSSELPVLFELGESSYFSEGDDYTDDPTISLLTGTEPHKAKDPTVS", "experiment": "decrease of HSF1-responsive luciferase luminescence – cell-based, NIH3T3, dose retest, confirmation (AID 2382);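 also: NIH3T3 fibroblasts with HSF1-driven luciferase reporter stressed by proteasome inhibitor MG132; luminescence from HSF1-driven luciferase expression after 8 hours of MG132 stress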", "type": "functional"}, "[6]": {"target": "T1, Beta-adrenergic receptor kinase 1", "experiment": "aptamer displacement from bead-bound GRK2 – biochemical, cherry pick 1, bead flow cytometry, dose response (AID 504500)"}, "[7]": {"target": "T3, Carboxy-terminal domain RNA polymerase II polypeptide A small phosphatase 1 (Homo sapiens, UniProt Q9GZU7)", "T3 sequence (Q9GZU7 whole entry)": "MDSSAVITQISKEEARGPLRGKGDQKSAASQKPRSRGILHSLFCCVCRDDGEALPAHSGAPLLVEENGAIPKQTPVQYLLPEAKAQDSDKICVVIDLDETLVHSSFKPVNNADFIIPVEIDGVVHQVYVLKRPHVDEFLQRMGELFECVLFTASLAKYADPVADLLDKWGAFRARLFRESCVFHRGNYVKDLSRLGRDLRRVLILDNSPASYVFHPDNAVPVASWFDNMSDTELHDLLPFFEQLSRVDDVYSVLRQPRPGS", "experiment": "CTDSP1 inhibitors, concentration-response, biochemical, absorbance readout, ultra-high-throughput screen actives (AID 540297)", "type": "functional"}, "[8]": {"target": "Photoreceptor-specific nuclear receptor (Homo sapiens, UniProt Q9Y5X4)", "sequence (Q9Y5X4 whole entry)": "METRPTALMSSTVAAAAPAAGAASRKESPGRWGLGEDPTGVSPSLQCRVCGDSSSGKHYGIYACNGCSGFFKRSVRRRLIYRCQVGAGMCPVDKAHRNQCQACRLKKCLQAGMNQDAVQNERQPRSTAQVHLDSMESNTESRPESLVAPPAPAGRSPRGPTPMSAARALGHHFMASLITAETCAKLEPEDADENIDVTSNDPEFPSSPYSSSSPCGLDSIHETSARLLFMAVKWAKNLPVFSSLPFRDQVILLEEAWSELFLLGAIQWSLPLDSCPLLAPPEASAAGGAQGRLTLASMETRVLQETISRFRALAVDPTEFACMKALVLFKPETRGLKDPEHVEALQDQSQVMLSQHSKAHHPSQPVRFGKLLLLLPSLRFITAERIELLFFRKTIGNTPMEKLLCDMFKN", "experiment": "ligands suppressing NR2E3 nuclear receptor activity – biochemical, TR-FRET, dose response (AID 463256)", "type": "functional"}, "[9]": {"experiment": "microbe, parasite or virus in culture", "type": "functional", "conditions": "Mycobacterium tuberculosis"}, "[10]": {"target": "Hepatocyte nuclear factor 4-alpha (Homo sapiens, UniProt P41235)", "type": "functional, cell-based"}, "A-375": {"system": "A-375", "experiment": "MITF: Counter assay: A375 proliferation Measured in Cell-Based System Using Plate Reader - 2084-03_Inhibitor_Dose_DryPowder_Activity. [Related pubchem assays (depositor defined):AID488944]", "type": "functional", "conditions": "Homo sapiens"}, "[11]": {"target": "Type-1 angiotensin II receptor (Homo sapiens, UniProt P30556)", "sequence (P30556 whole entry)": "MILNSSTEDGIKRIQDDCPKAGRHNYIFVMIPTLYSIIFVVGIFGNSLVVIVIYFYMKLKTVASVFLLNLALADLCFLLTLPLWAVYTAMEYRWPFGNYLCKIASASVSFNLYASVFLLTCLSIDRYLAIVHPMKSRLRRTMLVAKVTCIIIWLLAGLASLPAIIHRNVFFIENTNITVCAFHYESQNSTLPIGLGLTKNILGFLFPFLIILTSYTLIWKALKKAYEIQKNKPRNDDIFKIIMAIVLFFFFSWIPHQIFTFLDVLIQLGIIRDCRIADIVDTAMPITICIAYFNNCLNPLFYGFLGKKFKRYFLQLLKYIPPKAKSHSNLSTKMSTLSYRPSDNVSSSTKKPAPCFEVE", "experiment": "antagonism of angiotensin II type 1 receptor – cell-based, uHTS hits, selectivity assay for APJ receptor antagonist project, dose response (AID 463214)", "type": "functional"}, "Beta-galactosidase": {"target": "Beta-galactosidase (Escherichia coli, UniProt Q8VNN2)", "sequence (Q8VNN2 whole entry)": "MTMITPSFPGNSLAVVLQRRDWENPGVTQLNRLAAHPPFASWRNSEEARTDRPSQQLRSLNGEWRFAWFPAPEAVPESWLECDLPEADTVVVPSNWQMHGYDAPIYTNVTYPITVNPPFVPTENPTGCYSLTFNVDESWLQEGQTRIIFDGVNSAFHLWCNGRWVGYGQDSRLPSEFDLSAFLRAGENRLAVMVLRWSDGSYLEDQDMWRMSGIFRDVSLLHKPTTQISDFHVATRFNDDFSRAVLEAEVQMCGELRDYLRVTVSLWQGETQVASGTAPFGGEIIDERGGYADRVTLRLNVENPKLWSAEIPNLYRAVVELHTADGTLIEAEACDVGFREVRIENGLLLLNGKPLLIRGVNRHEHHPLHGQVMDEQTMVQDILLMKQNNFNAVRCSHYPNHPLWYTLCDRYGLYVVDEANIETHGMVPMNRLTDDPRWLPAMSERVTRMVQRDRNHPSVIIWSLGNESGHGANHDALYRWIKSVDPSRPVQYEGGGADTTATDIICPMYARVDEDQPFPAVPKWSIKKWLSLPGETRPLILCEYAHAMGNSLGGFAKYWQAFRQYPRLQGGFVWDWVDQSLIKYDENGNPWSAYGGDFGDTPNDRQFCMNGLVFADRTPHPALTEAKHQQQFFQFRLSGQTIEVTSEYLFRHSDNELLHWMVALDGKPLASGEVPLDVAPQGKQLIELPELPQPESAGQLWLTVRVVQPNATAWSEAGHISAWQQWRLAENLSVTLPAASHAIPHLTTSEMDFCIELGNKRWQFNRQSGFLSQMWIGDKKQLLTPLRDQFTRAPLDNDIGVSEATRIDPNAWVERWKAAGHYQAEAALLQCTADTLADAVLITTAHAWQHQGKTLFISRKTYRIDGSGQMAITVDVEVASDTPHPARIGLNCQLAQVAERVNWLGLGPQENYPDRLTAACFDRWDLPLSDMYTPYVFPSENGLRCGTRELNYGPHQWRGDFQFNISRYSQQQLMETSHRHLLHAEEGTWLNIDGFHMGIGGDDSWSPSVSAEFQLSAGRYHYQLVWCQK", "experiment": "PubChem AID 485352", "type": "functional"}, "[12]": {"experiment": "HEK-293T viability loss, compound-treated – cell-based, uHTS hits, cytotoxicity control for B/T-cell NF-kB inhibitor project, dose response (AID 489019);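 also: IC50 reflects cytotoxicity as loss of cell viability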", "type": "functional"}, "INS1": {"system": "INS1", "experiment": "INS-1E survival protection against cytokine death – cell-based, luminescence, retest, dose response (AID 449756);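 also: cell death triggered by IL-1 beta plus TNF-alpha plus IFN-gamma mixture; protective hits raise ATP signal compared with cytokine alone wells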", "type": "functional", "conditions": "Rattus norvegicus"}, "Jurkat [13]": {"system": "Jurkat", "experiment": "blockers of NF-kB activation in T cells – Jurkat, luciferase reporter, luminescence, B- and T-cell, dose response (AID 489004);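 also: NF-kB luciferase reporter Jurkat cells stimulated with PMA plus ionomycin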", "type": "functional, cell-based", "conditions": "Homo sapiens"}, "[14]": {"target": "Potassium voltage-gated channel subfamily KQT member 2 (Rattus norvegicus, UniProt O88943)", "sequence (O88943 whole entry)": "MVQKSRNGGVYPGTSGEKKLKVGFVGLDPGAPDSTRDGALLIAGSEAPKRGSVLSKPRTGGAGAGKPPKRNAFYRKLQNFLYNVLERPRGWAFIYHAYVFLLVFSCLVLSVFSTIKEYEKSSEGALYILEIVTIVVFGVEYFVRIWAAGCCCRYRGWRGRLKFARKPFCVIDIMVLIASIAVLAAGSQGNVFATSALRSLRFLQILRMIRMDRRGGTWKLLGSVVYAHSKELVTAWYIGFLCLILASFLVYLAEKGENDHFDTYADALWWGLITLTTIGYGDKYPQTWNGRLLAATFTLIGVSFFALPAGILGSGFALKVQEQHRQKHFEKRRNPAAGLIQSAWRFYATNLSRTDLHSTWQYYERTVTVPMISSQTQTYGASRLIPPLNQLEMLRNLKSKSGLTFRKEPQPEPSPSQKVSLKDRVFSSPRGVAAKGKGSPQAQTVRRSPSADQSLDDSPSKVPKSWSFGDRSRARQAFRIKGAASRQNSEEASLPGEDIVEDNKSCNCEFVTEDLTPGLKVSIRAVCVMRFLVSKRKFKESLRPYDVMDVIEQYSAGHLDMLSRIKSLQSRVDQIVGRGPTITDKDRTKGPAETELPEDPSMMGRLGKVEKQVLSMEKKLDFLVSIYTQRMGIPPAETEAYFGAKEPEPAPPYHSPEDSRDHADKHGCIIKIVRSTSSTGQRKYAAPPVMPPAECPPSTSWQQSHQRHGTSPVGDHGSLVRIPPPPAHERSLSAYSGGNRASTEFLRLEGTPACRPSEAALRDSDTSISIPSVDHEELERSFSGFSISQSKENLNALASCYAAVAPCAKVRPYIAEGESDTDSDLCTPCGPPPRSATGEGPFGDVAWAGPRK", "experiment": "rat KCNQ2 current potentiators – automated patch clamp, KCNQ2-CHO cells, SAR follow-up (AID 493113)", "type": "functional"}, "HEK293 [15]": {"system": "HEK293", "experiment": "HEK293T cell viability loss, resazurin readout – resazurin fluorescence, cytotoxicity control for NF-kB activator project, SAR follow-up (AID 493251)", "type": "functional, cell-based", "conditions": "Homo sapiens"}, "Jurkat [16]": {"system": "Jurkat", "experiment": "SAR Analysis of small molecule inhibitors of […] specific antigen receptor-induced NF-kB activation in a Jurkat cell line using a luminescence assay - Set 3. [Related pubchem assays (depositor defined):AID435022, AID435025, AID465]", "type": "functional, cell-based", "conditions": "Homo sapiens"}, "HEK293 [17]": {"system": "HEK293", "experiment": "SAR Analysis of small molecule inhibitors of B-cell specific antigen receptor-induced NF-kB activation in a HEK-293T cell line using a luminescence assay - Set 2. [Related pubchem assays (depositor defined):AID435022, AID435025, AID489021]", "type": "functional, cell-based", "conditions": "Homo sapiens"}, "[18]": {"experiment": "viability loss of HMLE_sh_eGFP cells – cell-based, luminescence, counter-screen for HMLE_sh_ECad selective toxicity project, dose response (AID 463074);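 also: HMLE human mammary epithelial cells expressing control shRNA against eGFP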", "type": "functional, Homo sapiens"}, "[19]": {"experiment": "Luminescence Cell-Based Dose Retest to Confirm Inhibitors of Cancer Stem Cells. [Related pubchem assays (depositor defined):AID2717, AID2721]", "type": "functional", "conditions": "Homo sapiens"}, "Cytochrome P450 1A2": {"target": "T4, Cytochrome P450 1A2 (Homo sapiens, UniProt P05177)", "T4 sequence (P05177 whole entry)": "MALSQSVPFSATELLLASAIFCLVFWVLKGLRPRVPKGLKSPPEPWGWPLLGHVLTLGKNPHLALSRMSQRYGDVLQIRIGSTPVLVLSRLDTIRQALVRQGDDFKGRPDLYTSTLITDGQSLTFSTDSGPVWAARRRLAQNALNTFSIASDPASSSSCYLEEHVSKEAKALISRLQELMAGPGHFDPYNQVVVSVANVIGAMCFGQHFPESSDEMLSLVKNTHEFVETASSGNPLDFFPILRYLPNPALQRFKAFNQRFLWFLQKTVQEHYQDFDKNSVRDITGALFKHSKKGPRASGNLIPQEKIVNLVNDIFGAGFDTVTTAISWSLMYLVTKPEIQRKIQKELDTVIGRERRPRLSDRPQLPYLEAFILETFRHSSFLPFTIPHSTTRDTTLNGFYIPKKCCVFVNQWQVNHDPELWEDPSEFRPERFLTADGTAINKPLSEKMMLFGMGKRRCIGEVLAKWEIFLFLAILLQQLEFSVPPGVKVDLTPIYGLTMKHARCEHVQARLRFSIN"}, "Cytochrome P450 2D6": {"target": "Cytochrome P450 2D6 (Homo sapiens, UniProt P10635)", "sequence (P10635 whole entry)": "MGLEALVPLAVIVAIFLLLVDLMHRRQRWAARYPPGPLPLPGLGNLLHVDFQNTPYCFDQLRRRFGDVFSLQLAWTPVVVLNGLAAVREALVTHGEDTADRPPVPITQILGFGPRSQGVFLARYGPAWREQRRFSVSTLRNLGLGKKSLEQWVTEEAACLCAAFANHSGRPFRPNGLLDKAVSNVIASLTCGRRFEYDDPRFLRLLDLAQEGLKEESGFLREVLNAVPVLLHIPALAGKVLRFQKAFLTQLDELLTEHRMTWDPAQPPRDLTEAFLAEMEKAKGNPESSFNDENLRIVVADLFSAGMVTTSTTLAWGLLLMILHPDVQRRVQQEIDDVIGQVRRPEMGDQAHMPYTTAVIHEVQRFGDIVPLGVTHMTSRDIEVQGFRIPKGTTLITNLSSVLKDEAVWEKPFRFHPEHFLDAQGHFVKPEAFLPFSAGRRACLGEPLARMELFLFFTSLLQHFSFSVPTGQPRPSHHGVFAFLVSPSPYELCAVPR"}, "[20]": {"target": "Voltage-gated inwardly rectifying potassium channel KCNH2 (Homo sapiens, UniProt Q12809)", "sequence (Q12809 whole entry)": "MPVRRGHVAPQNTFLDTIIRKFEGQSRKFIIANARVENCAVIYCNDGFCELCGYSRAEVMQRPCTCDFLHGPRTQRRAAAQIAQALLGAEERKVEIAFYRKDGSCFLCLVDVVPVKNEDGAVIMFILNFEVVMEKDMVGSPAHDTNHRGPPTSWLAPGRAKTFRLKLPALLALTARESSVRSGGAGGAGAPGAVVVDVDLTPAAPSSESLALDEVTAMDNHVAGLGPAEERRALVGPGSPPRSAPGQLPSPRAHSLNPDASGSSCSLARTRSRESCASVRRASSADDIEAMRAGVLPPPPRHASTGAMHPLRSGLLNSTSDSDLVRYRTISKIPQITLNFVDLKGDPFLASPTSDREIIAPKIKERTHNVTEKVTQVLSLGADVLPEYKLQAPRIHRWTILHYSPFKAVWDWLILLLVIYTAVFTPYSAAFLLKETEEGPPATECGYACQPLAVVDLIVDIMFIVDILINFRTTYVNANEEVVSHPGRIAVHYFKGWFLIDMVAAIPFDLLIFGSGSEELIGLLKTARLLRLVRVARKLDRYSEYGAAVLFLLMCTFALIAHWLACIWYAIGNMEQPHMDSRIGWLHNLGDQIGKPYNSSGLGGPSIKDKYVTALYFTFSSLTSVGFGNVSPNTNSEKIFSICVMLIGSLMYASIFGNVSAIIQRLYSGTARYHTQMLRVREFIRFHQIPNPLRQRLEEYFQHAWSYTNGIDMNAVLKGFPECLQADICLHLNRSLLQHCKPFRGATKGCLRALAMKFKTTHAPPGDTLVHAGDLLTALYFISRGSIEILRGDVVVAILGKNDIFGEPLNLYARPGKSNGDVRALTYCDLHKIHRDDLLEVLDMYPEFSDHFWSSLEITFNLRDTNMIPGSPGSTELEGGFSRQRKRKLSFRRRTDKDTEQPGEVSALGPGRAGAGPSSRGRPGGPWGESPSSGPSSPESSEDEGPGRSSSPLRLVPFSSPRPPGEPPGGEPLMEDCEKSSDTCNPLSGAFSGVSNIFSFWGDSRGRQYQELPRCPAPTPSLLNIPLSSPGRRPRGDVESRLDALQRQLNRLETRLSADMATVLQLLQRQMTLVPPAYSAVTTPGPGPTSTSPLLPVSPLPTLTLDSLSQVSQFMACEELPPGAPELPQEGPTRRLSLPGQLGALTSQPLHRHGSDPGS", "conditions": "Potency"}},
  "note": "The source made the active and inactive calls.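 For Absolute IC50 (XBP1) in this document: confirmatory dose-response counter-screen serving a CHOP assay.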",
  "data": [
    {"compound": "O=C1/C(=C/c2ccncc2)CCC/C1=C\\c1ccncc1", "values": [
      {"measurement": "AC50", "setting": "[1]", "result": "8.7 µM (active)"},
      {"measurement": "Absolute IC50 (CHOP)", "setting": "[2]", "result": 10, "unit": "µM"},
      {"measurement": "Absolute IC50 (XBP1)", "setting": "X-box-binding protein 1", "result": 10, "unit": "µM"},
      {"measurement": "EC50", "setting": "BJ", "result": "474 nM (active)"},
      {"measurement": "CC50", "setting": "HeLa", "result": "> 1.22 µM (not active)"}
    ]},
    {"compound": "O=C(CCS(=O)(=O)c1ccc(Br)s1)Nc1ccccc1Br", "values": [
      {"measurement": "EC50", "setting": "[3]", "result": "20.9 µM (active)"}
    ]},
    {"compound": "CCc1ccccc1NC(=O)CCS(=O)(=O)c1ccc(OC)cc1", "values": [
      {"measurement": "IC50", "setting": "[4]", "result": "16.8 µM (not active)"},
      {"measurement": "EC50", "setting": "[5]", "result": "> 195 µM (not active)"},
      {"measurement": "EC50", "setting": "[6]", "result": "17.8 µM (inactive)"},
      {"measurement": "IC50", "setting": "[7]", "result": "21.1 µM (active)"},
      {"measurement": "IC50", "setting": "[8]", "result": "13.9 µM (not active)"}
    ]},
    {"compound": "COc1ccc(C)c2sc(N(CCN(C)C)C(=O)/C=C/c3cccs3)nc12", "values": [
      {"measurement": "CC50", "setting": "[9]", "result": "12.7 µM (active)"},
      {"measurement": "IC50", "setting": "[10]", "result": "35.2 µM (inactive)"},
      {"measurement": "AC50", "setting": "A-375", "result": "43.2 µM (active)"}
    ]},
    {"compound": "Cc1ccc(C(=O)COC(=O)CCC(=O)Nc2ccccc2Cl)cc1[N+](=O)[O-]", "values": [
      {"measurement": "IC50", "setting": "[11]", "result": "22.9 µM (not active)"},
      {"measurement": "EC50", "setting": "Beta-galactosidase", "result": "> 40 µM (inactive)"}
    ]},
    {"compound": "COC1=CC(=O)[C@]2(C=C1OC)OC[C@@H]1Oc3c(ccc4c3C=CC(C)(C)O4)C(=O)[C@@H]12", "values": [
      {"measurement": "IC50", "setting": "[12]", "result": "23 µM (inactive)"},
      {"measurement": "AC50", "setting": "INS1", "result": "671 nM (active)"},
      {"measurement": "IC50", "setting": "Jurkat [13]", "result": "28.7 µM (inactive)"}
    ]},
    {"compound": "O=C(Nc1ccc(F)cc1F)C1CC2CCC1C2", "note": "(stereo not drawn)", "values": [
      {"measurement": "EC50", "setting": "[14]", "result": "10 µM (active)"}
    ]},
    {"compound": "CCOc1ccc(-c2nc(CSCC(=O)NC3CCCC(C)C3C)c(C)o2)cc1", "note": "(stereo not drawn)", "values": [
      {"measurement": "IC50", "setting": "HEK293 [15]", "result": "38.9 µM (inactive)"},
      {"measurement": "IC50", "setting": "Jurkat [16]", "result": "39.3 µM (inactive)"},
      {"measurement": "IC50", "setting": "HEK293 [17]", "result": "8.81 µM (active)"}
    ]},
    {"compound": "C/C(=N\\Nc1cccc(Cl)c1)C1(C)N(O)C(C)(C)C(c2ccco2)=[N+]1[O-]", "note": "(stereo not drawn)", "values": [
      {"measurement": "AC50", "setting": "[18]", "result": "1.5 µM (inconclusive)"},
      {"measurement": "AC50", "setting": "[19]", "result": "1.06 µM (active)"}
    ]},
    {"compound": "Nc1nnc(-c2cccc(Cl)c2Cl)c(N)n1", "note": "[LAMOTRIGINE]", "values": [
      {"measurement": "AC50", "setting": "Cytochrome P450 1A2", "result": "inactive"},
      {"measurement": "AC50", "setting": "Cytochrome P450 2D6", "result": "6.31 µM (active)"}
    ]},
    {"compound": "CC(=O)CC(C)C", "note": "[METHYL ISOBUTYL KETONE]", "values": [
      {"measurement": "AC50", "setting": "[20]", "result": "15.8 µM (inconclusive)"}
    ]}
  ]
}
